Source: patent USRE46698E1, “Use of cyclohexanol derivatives as antimicrobial active compounds” (MERCK PATENT GMBH, priority 2011, dated 2018)

How the values were obtained:
[1] = test system: S. epidermidis (ATCC 12228); test: Microbe count determination, bacteriostatic or bactericidal action (Example 5); assay type: cell-based, Staphylococcus epidermidis; conditions: 24 h at 35° C.
Protocol: (§1) For sample preparation, the substances being investigated are each dissolved or homogeneously dispersed in an amount of 1.0% in a water/ethanol mixture (12% of ethanol) (=sample). A bacteria suspension of S. epidermidis (ATCC 12228) having an optical density of 1.0 in CASO broth (Merck 1.05459) is diluted 1:10000 with CASO broth. 500 μl of sample are added to 500 μl of bacteria suspension, and the mixture is incubated at 35° C. for 24 h. After the incubation, the test batches are diluted to −6 in 10 unit steps, and 0.1 ml of each is plated-out on CASO agar (Merck 1.05458) and incubated at 35° C. for 24 h.
(§2) In order to determine the initial microbe count, 0.1 ml of the bacteria suspension used are plated-out on CASO agar (Merck 1.05458) and incubated at 35° C. for 24 h.
(§3) The colonies are subsequently counted, and the microbe count per ml is determined compared with the negative control (12% of ethanol in water).

[2] = test system: S. epidermidis (ATCC 12228); test: Growth inhibition by optical density, Bioscreen C (Example 3); assay type: cell-based, Staphylococcus epidermidis; conditions: 1st experiment; 1.0% sample in water/ethanol (12% of ethanol) diluted 1 to 2 with bacteria suspension; 37° C.; negative control 0.80
Protocol: For sample preparation, the substances being investigated are each dissolved or homogeneously dispersed in an amount of 1.0% in a water/ethanol mixture (12% of ethanol) and subsequently diluted with bacteria suspension in the ratio 1 to 2. S. epidermidis (ATCC 12228) is pre-incubated under aerobic conditions for 24 h at 35° C. on CASO agar (Merck 1.05458). A bacteria suspension having an optical density (OD) of about 1.0 is subsequently prepared in CASO broth (Merck 1.05459, double-concentrated) and diluted again 1:10 in CASO broth. 150 μl of freshly prepared sample are added to 150 μl of bacteria suspension per well. The optical density is determined over the course of time at 37° C. using a Bioscreen C™ analyser compared with the negative control (=vehicle without test substance). Compared with the negative control, reduced optical densities confirm growth-inhibiting substance actions
(§4) Result as optical density of the bacteria suspension after an exposure time of 20 hours: […]

[3] = test system: P. acnes (ATCC 6919); test: Growth inhibition by optical density, Bioscreen C (Example 4); assay type: cell-based, Propionibacterium acnes; conditions: 1.0% sample in water/ethanol (12% of ethanol) diluted 1 to 2 with bacteria suspension; 37° C.; negative control 1.0
Protocol: (§5) For sample preparation, the substances being investigated are each dissolved or homogeneously dispersed in an amount of 1.0% in a water/ethanol mixture (12% of ethanol) and subsequently diluted with bacteria suspension in the ratio 1 to 2. P. acnes (ATCC 6919) is pre-incubated under anaerobic conditions for 48 h at 35° C. on RMC agar (Merck 1.05410). A bacteria suspension having an optical density (OD) of about 1.5 is subsequently prepared in RMC broth (Merck 1.05411, double-concentrated). 150 μl of freshly prepared sample and 100 μl of paraffin are added to 150 μl of bacteria suspension per well. The optical density is determined over the course of time at 37° C. using a Bioscreen C™ analyser compared with the negative control (=vehicle without test substance). Compared with the negative control, reduced optical densities confirm growth-inhibiting substance actions.
as §4

[4] = Densities and viscosities, Ubbelohde viscometer, to estimate spreadability (Example 10); assay type: physicochemical; conditions: 25° C.
Protocol: Measurement of the Dynamic Viscosities in Order to Estimate the Spreadability at 25° C. After measurement of the densities and kinematic viscosities using an Ubbelohde viscometer, the following dynamic viscosities arise: Since spreadabilities and viscosities of cosmetic emollients correlate well, good spreadabilities can be concluded from the viscosities determined.

[5] = test system: Candida albicans; test: Antimicrobial action, microbe count (Example 6); assay type: cell-based; conditions: conc. 0.5%; for Δlog: t24 h
Protocol: as §1, §2, §3
(§6) The procedure corresponds to that described in Examples 4 and 5 using the microorganisms shown below. The concentrations indicated are the final use concentrations. In order to prepare the stock solution, double the final concentration were prepared in the solvent indicated. This was subsequently diluted 1:2 with the corresponding microbe suspension. In the case of Aspergillus brasiliensis, the microbe count determination was exceptionally carried out after 48 h.

[6] = test system: Malassezia furfur; test: Antimicrobial action, microbe count (Example 6); assay type: cell-based; conditions: conc. 1.0%, H2O, count t0 4.0 × 10^2
Protocol: as §5, §1, §2, §3, §6

[7] = test system: Pseudomonas aeruginosa; test: Antimicrobial action, microbe count (Example 6); assay type: cell-based; conditions: conc. 0.5%, H2O (12% of ethanol), count t0 6.8 × 10^4
Protocol: as §5, §1, §2, §3, §6

[8] = test system: Staphylococcus epidermidis; test: Antimicrobial action, microbe count (Example 6); assay type: cell-based; conditions: conc. 0.5%, H2O (12% of ethanol), count t0 3.4 × 10^4
Protocol: as §5, §1, §2, §3, §6

[9] = test system: Propionibacterium acnes; test: Antimicrobial action, microbe count (Example 6); assay type: cell-based; conditions: conc. 0.5%, H2O (12% of ethanol), count t0 2.0 × 10^4
Protocol: as §5, §1, §2, §3, §6

[10] = test system: Salmonella enterica; test: Antimicrobial action, microbe count (Example 6); assay type: cell-based; conditions: conc. 0.5%; for Δlog: t24 h
Protocol: as §5, §1, §2, §3, §6

[11] = test system: Corynebacterium xerosis; test: Antimicrobial action, microbe count (Example 6); assay type: cell-based; conditions: conc. 0.5%, H2O (12% of ethanol), count t0 3.5 × 10^4
Protocol: as §5, §1, §2, §3, §6

[12] = test system: Aspergillus brasiliensis; test: Antimicrobial action, microbe count (Example 6); assay type: cell-based; conditions: conc. 0.5%, H2O (12% of ethanol), count t0 2.0 × 10^4
Protocol: as §5, §1, §2, §3, §6

[13] = test system: Echerichia coli; test: Antimicrobial action, microbe count (Example 6); assay type: cell-based; conditions: conc. 0.5%, H2O (12% of ethanol), count t0 4.6 × 10^4
Protocol: as §5, §1, §2, §3, §6

[14] = test system: Serratia marcescens; test: Antimicrobial action, microbe count (Example 6); assay type: cell-based; conditions: conc. 0.5%; for Δlog: t24 h
Protocol: as §5, §1, §2, §3, §6

[15] = H2O (12% of ethanol), count t0 3.4 × 10^4
[16] = H2O (12% of ethanol), count t0 6.0 × 10^4
[17] = H2O (12% of ethanol), count t0 6.8 × 10^4

CCOC(=O)C1CCCCC1O (stereo not drawn) [Substance I-2]
Final microbe count ([1]; 1.0% sample in 12% ethanol, 500 μl + 500 μl bacteria suspension, initial count 3.8 × 10^4, negative control 5.0 × 10^7): 2.9 × 10^4 CFU/ml | Note: bacteriostatic or bactericidal action ([1]; S. epidermidis): bacteriostatic | OD20h, optical density of the bacteria suspension after 20 hours [2]: 0.30 | OD20h, optical density of the bacteria suspension after 20 hours [3]: 0.45 | Density [4]: 1.0564 g/mL | Dynamic viscosity (kinematic viscosity × density) [4]: 16.4 mPas | Kinematic viscosity ([4]; Ubbelohde viscometer): 15.5 mm^2/s | Microbe count t24 h [5, 15]: 3.0 × 10^2 | Δlog [5, 15]: −2.05 | Microbe count t24 h ([5]; H2O, count t0 3.8 × 10^5): 2.5 × 10^5 | Δlog ([5]; H2O, count t0 3.8 × 10^5): −0.18 | Microbe count t24 h [6]: 0 | Δlog ([6]; t24 h): −2.60 | Microbe count t24 h [7]: 0 | Δlog ([7]; t24 h): −4.83 | Microbe count t24 h [8]: 2.0 × 10^4 | Δlog ([8]; t24 h): −0.23 | Microbe count t24 h [9]: 1.2 × 10^4 | Δlog ([9]; t24 h): −0.22 | Microbe count t24 h [10, 16]: 0 | Δlog [10, 16]: −4.78 | Microbe count t24 h ([10]; H2O, count t0 1.0 × 10^6): 5.0 × 10^4 | Δlog ([10]; H2O, count t0 1.0 × 10^6): −1.30 | Microbe count t24 h [11]: 0 | Δlog ([11]; t24 h): −4.54 | Δlog ([12]; count after 48 h): −0.30 | Microbe count t24 h ([12]; count carried out after 48 h): 1.0 × 10^4 | Microbe count t24 h [13]: 1.8 × 10^3 | Δlog ([13]; t24 h): −1.41 | Microbe count t24 h [14, 17]: 0 | Δlog [14, 17]: −3.83 | Microbe count t24 h ([14]; H2O, count t0 2.9 × 10^5): 9.0 × 10^5 | Δlog ([14]; H2O, count t0 2.9 × 10^5): +0.49
